# Assay results published in US20230212131A1, “COLLAGEN 1 TRANSLATION INHIBITORS AND METHODS OF USE THEREOF” (Anima Biotech Inc., priority 2020, published 2023).
# Test system: collagen 1 (COL1)
# Test: WI-38 collagen 1 inhibition assay
# Type: cell-based, human
# Details: Cellular EC50, WI-38 cells; values are classes of LogEC50
# Excerpt: All compounds were profiled for cellular potency in inhibition of collagen 1 (COL1) protein translation using a phenotypic screening platform.
# WI-38 cells (ATCC® CCL-75™) were maintained in MEM EAGLE (NEAA) W. GLUTAMIN (Biological Industries, Cat. 06-1040-15-1A) containing 10% fetal bovine serum (FBS) and 1% Penicillin-Streptomycin Solution. To synchronize the cells (cell cycle synchronization) prior to induction of collagen synthesis, the cells were starved using DMEM-low glucose supplemented with 0.25% FBS for two hours and then without FBS for 24 hours. To induce collagen synthesis, the cells were treated with a collagen induction cocktail for the indicated time. Compounds were added with induction.
# Cells in 96-well or 384-well plates were fixed for 20 min in 4% paraformaldehyde (PFA, ENCO, Cat. sc-281692). Following two washes with 1×PBS, cells were treated with hydrogen peroxide (Acros, Cat: 7722-84-1) for 10 minutes and then washed twice with 1×PBS. Cells were then incubated over-night at 4° C. with Anti-Collagen I (Sigma-Aldrich, Cat: C 2456) antibody and washed three times with 1×PBS. Cells were then incubated with a suitable secondary fluorescently-tagged antibody and nuclei stained with DAPI, for 1 hour, and then washed 3 times with 1×PBS.
# Cell images were taken with Operetta (Perkin Elmer, USA), a wide-field fluorescence microscope at 20× magnification. After acquisition, the images were transferred to Columbus software (Perkin-Elmer) for image analysis. In Columbus, cells were identified by their nucleus, using the “Find Nuceli” module and cytoplasm was detected based on the secondary antibody channel. Subsequently, the fluorescent signal was enumerated in the identified cell region. Data was exported to a data analysis and visualization software, Tibco Spotfire, USA.
row,SMILES,COL1 Efficacy (LogEC50)
1,"Cc1ccc(C(=O)Nc2nc(-c3ccccc3Cl)cs2)nc1 [compound 329, N-[4-(2-chlorophenyl)thiazol-2-yl]-5-methyl-pyridine-2-carboxamide]",++ (++: −5 to −6)
2,"COc1ccc(C(=O)Nc2nc(-c3ccccc3F)cs2)cc1 [Compound 336, N-[4-(2-fluorophenyl)thiazol-2-yl]-4-methoxy-benzamide]",++ (++: −5 to −6)
3,"CS(=O)(=O)N1CCN(c2ccc(C(=O)Nc3nc(-c4ccccc4Cl)cs3)nc2)CC1 [Compound 403, N-(4-(2-chlorophenyl)thiazol-2-yl)-5-(4-(methylsulfonyl)piperazin-1-yl)picolinamide]",+++ (+++: <−6)
4,"O=C(Nc1nc(-c2ccccc2Cl)cs1)c1ccc(N2CCN(C(=O)CCO)CC2)cn1 [Compound 455, N-(4-(2-chlorophenyl)thiazol-2-yl)-5-(4-(3-hydroxypropanoyl)piperazin-1-yl)picolinamide]",+++ (+++: <−6)
5,"CN(C(=O)c1ccc(N2CCOCC2)cc1)c1nc(-c2ccccc2Cl)cs1 [Compound 399, N-(4-(2-chlorophenyl)thiazol-2-yl)-N-methyl-4-morpholinobenzamide]",++ (++: −5 to −6)
6,"O=C(Nc1nc(-c2ccccn2)cs1)c1ccc(N2CCOCC2)cc1 [Compound 370, 4-morpholino-N-[4-(2-pyridyl)thiazol-2-yl]benzamide]",+ (+: >−5)
7,"COCCOCc1ccccc1-c1csc(NC(=O)c2ccc(N3CCOCC3)cc2)n1 [Compound 379, N-(4-(2-((2-methoxyethoxy)methyl)phenyl)thiazol-2-yl)-4-morpholinobenzamide]",++ (++: −5 to −6)
8,"CN(C)CCC(=O)N1CCN(c2ccc(C(=O)Nc3nc(-c4ccccc4Cl)cs3)nc2)CC1 [Compound 444, N-(4-(2-chlorophenyl)thiazol-2-yl)-5-(4-(3-(dimethylamino)propanoyl)piperazin-1-yl)picolinamide]",+++ (+++: <−6)
9,"O=C(Nc1nc(-c2ccccc2Cl)cs1)c1ccc(N2CCOCC2)cn1 [compound 339, N-[4-(2-chlorophenyl)thiazol-2-yl]-5-morpholino-pyridine-2-carboxamide]",+++ (+++: <−6)
10,"CN(C)C(=O)c1ccc(C(=O)Nc2nc(-c3ccccc3Cl)cs2)cc1 [compound 389, N′-(4-(2-chlorophenyl)thiazol-2-yl)-N,N-dimethylterephthalamide]",++ (++: −5 to −6)
11,"O=C(Nc1nc(-c2ccccc2Cl)cs1)c1ccc(N2CCOCC2)cc1C(F)(F)F [Compound 411, N-(4-(2-chlorophenyl)thiazol-2-yl)-4-morpholino-2-(trifluoromethyl)benzamide]",+++ (+++: <−6)
12,"O=C(Nc1nc(C2CCOCC2)cs1)c1ccc(N2CCOCC2)cn1 [compound 393, 5-morpholino-N-(4-(tetrahydro-2H-pyran-4-yl)thiazol-2-yl)picolinamide]",++ (++: −5 to −6)
13,"Cc1ncc(C(=O)Nc2nc(-c3ccccc3Cl)cs2)cn1 [compound 320, N-[4-(2-chlorophenyl)thiazol-2-yl]-2-methyl-pyrimidine-5-carboxamide]",++ (++: −5 to −6)
14,"CN(C)CC(=O)N1CCN(c2ccc(C(=O)Nc3nc(-c4ccccc4Cl)cs3)nc2)CC1 [Compound 443, N-(4-(2-chlorophenyl)thiazol-2-yl)-5-(4-(dimethylglycyl)piperazin-1-yl)picolinamide]",+++ (+++: <−6)
15,"Cc1ccc(C(=O)Nc2nc(-c3cncnc3)cs2)cn1 [Compound 340, 6-methyl-N-(4-pyrimidin-5-ylthiazol-2-yl)pyridine-3-carboxamide]",+++ (+++: <−6)
16,"COc1ncc(C(=O)Nc2nc(-c3ccccc3Cl)cs2)cn1 [compound 345, N-[4-(2-chlorophenyl)thiazol-2-yl]-2-methoxy-pyrimidine-5-carboxamide]",+++ (+++: <−6)
17,"Cc1ncccc1-c1csc(NC(=O)c2ccc(N3CCOCC3)nc2)n1 [compound 375, N-[4-(2-methyl-3-pyridyl)thiazol-2-yl]-6-morpholino-pyridine-3-carboxamide]",+ (+: >−5)
18,"CN(C(=O)c1ccc(N2CCOCC2)cn1)c1nc(-c2ccccc2Cl)cs1 [Compound 400, N-(4-(2-chlorophenyl)thiazol-2-yl)-N-methyl-5-morpholinopicolinamide]",++ (++: −5 to −6)
19,"CC(=O)N1CCN(c2cnc(C(=O)Nc3nc(-c4ccccc4Cl)cs3)c(C)c2)CC1 [compound 458, 5-(4-acetylpiperazin-1-yl)-N-(4-(2-chlorophenyl)thiazol-2-yl)-3-methylpicolinamide]",+++ (+++: <−6)
20,"O=C(Nc1nc(-c2ccccc2Cl)cs1)c1ccc(N2CCN(C(=O)CO)CC2)cn1 [Compound 445, N-(4-(2-chlorophenyl)thiazol-2-yl)-5-(4-(2-hydroxyacetyl)piperazin-1-yl)picolinamide]",+++ (+++: <−6)
21,"COc1ccc(C(=O)Nc2nc(-c3cc(Cl)cc(Cl)c3)cs2)cc1 [Compound 315, N-(4-(3,5-dichlorophenyl)thiazol-2-yl)-4-methoxybenzamide]",+++ (+++: <−6)
22,"C#CCCC1(CCN2CCN(c3ccc(C(=O)Nc4nc(-c5ccccc5Cl)cs4)cc3)CC2)N=N1 [compound 484, 4-(4-(2-(3-(but-3-yn-1-yl)-3H-diazirin-3-yl)ethyl)piperazin-1-yl)-N-(4-(2-chlorophenyl)thiazol-2-yl)benzamide hemiformate]",+++ (+++: <−6)
23,"CC(=O)N1CCN(c2ccc(C(=O)Nc3nc(-c4cccnc4CO)cs3)nc2)CC1 [compound 472, 5-(4-acetylpiperazin-1-yl)-N-(4-(2-(hydroxymethyl)pyridin-3-yl)thiazol-2-yl)picolinamide]",++ (++: −5 to −6)
24,"O=C(Nc1nc(-c2ccccc2Cl)cs1)N1CCC(N2CCOCC2)CC1 [compound 360, N-[4-(2-chlorophenyl)thiazol-2-yl]-4-morpholino-piperidine-1-carboxamide]",+ (+: >−5)
25,"CN1CCN(c2ccc(C(=O)Nc3nc(-c4ccccc4Cl)cs3)cc2)CC1 [compound 322, N-[4-(2-chlorophenyl)thiazol-2-yl]-4-(4-methylpiperazin-1-yl)benzamide]",+++ (+++: <−6)
26,"O=C(Nc1nc(-c2ccc(Cl)cc2Cl)cs1)c1ccc(F)cc1 [Compound 308, N-(4-(2,4-dichlorophenyl)thiazol-2-yl)-4-fluorobenzamide]",++ (++: −5 to −6)
27,O=C(Nc1nc(-c2ccccc2Cl)cs1)c1ccc(N2CCCC2=O)cn1 [compound 465],− (−: inactive)
28,"Cc1ncccc1-c1csc(NC(=O)c2cnc(N3CCOCC3)cn2)n1 [compound 372, N-[4-(2-methyl-3-pyridyl)thiazol-2-yl]-5-morpholino-pyrazine-2-carboxamide]",+ (+: >−5)
29,O=C(Nc1nc(-c2ccccc2Cl)cs1)c1ccc(Br)cc1 [compound 310],+++ (+++: <−6)
